Assay results reported in patent US20240216342A1, “BLOOD CARNITINE-INCREASING AGENT” (KOWA COMPANY, LTD., priority 2021, published 2024).

What was measured:
Format in all cases: in vivo, human
[1] = Blood free carnitine in a fasting state, compound A given orally to dyslipidemia patients for 4 weeks (Example 1); conditions: for Ratio of change in free carnitine after administration for 4 weeks with respect to value before administration (at 0 weeks): fasting state, oral
Protocol: A study was conducted on an action on blood carnitine in oral administration of the compound A to a dyslipidemia patient at 0.2 to 0.8 mg a day for 4 weeks. For the administration of the compound A, an IR preparation (0.2 mg/day, twice a day), 0.4 mg of a CR preparation (once a day) and 0.8 mg of a CR preparation (once a day) were used, and the administration was performed before or after a meal. Table 1 and FIG. 1 show a ratio of change in concentration of free carnitine in blood in a fasting state in administration of the compound A to the dyslipidemia patient for 4 weeks with respect to the value before administration (at 0 weeks) in Example 1.

[2] = Blood free carnitine after meal (high-fat food) versus before meal, compound A given to dyslipidemia patients for 4 weeks (Example 1)
Protocol: A study was conducted on an action on blood carnitine in oral administration of the compound A to a dyslipidemia patient at 0.2 to 0.8 mg a day for 4 weeks. For the administration of the compound A, an IR preparation (0.2 mg/day, twice a day), 0.4 mg of a CR preparation (once a day) and 0.8 mg of a CR preparation (once a day) were used, and the administration was performed before or after a meal. Table 2 and FIG. 2 show a process of an amount of change in free carnitine in blood after meal (after intake of high-fat food) with respect to a value before meal in administration of the compound A to the dyslipidemia patient for 4 weeks in Example 1.

[3] = Blood free carnitine in a fasting state, compound A given orally to NAFLD patients for 48 weeks versus placebo (Example 2); conditions: IR 0.4 mg/day
Protocol: A study was conducted on an action on blood carnitine in oral administration of the compound A to a non-alcoholic fatty liver disease (NAFLD) patient at 0.4 mg a day for 48 weeks. For the administration of the compound A, an IR preparation (0.4 mg/day, twice a day) was used, and the administration was performed in a fasting state. A comparison was made with placebo administration. Table 3 and FIG. 3 show a process of a ratio of change in concentration of free carnitine in blood in a fasting state in administration of the compound A (IR 0.4 mg/day) to the NAFLD patient for 48 weeks with respect to the value before administration (at 0 weeks) in Example 2.

Structure (SMILES): CC[C@@H](Oc1cccc(CN(CCCOc2ccc(OC)cc2)c2nc3ccccc3o2)c1)C(=O)O [Compound A, (R)-2-[3-[[N-(benzoxazol-2-yl)-N-3-(4-methoxyphenoxy)propyl]aminomethyl]phenoxy]butyric acid]
- Effect on concentration of free carnitine in blood in a fasting state (in words) ([1]; 0.2 to 0.8 mg a day): increased the concentration of free carnitine in blood in a dose-dependent manner
- Ratio of change in free carnitine after administration for 4 weeks with respect to value before administration (at 0 weeks) ([1]; CR preparation 0.4 mg/day): 19.5
- Ratio of change in free carnitine after administration for 4 weeks with respect to value before administration (at 0 weeks) ([1]; CR preparation 0.8 mg/day): 23.71
- Ratio of change in free carnitine after administration for 4 weeks with respect to value before administration (at 0 weeks) ([1]; IR preparation 0.2 mg/day): 11.82
- Effect on concentration of free carnitine in blood after meal compared to before meal (in words) ([2]; 0.2 to 0.8 mg a day, 4 weeks): increased the concentration of free carnitine in blood after meal as compared to the concentration before meal
- Amount of change in free carnitine in blood after meal with respect to value before meal, average ([2]; CR 0.4 mg/day (QD) for 4 weeks, 1 h after high-fat meal): 2.78 µmol/L
- Amount of change in free carnitine in blood after meal with respect to value before meal, average ([2]; CR 0.4 mg/day (QD) for 4 weeks, 2.5 h after high-fat meal): 2.65 µmol/L
- Amount of change in free carnitine in blood after meal with respect to value before meal, average ([2]; CR 0.4 mg/day (QD) for 4 weeks, 4.5 h after high-fat meal): 2.25 µmol/L
- Amount of change in free carnitine in blood after meal with respect to value before meal, average ([2]; CR 0.8 mg/day (QD) for 4 weeks, 1 h after high-fat meal): 3.11 µmol/L
- Amount of change in free carnitine in blood after meal with respect to value before meal, average ([2]; CR 0.8 mg/day (QD) for 4 weeks, 2.5 h after high-fat meal): 3.26 µmol/L
- Amount of change in free carnitine in blood after meal with respect to value before meal, average ([2]; CR 0.8 mg/day (QD) for 4 weeks, 4.5 h after high-fat meal): 2.92 µmol/L
- Amount of change in free carnitine in blood after meal with respect to value before meal, average ([2]; IR 0.2 mg/day (BID) for 4 weeks, 1 h after high-fat meal): 2.72 µmol/L
- Amount of change in free carnitine in blood after meal with respect to value before meal, average ([2]; IR 0.2 mg/day (BID) for 4 weeks, 2.5 h after high-fat meal): 2.19 µmol/L
- Amount of change in free carnitine in blood after meal with respect to value before meal, average ([2]; IR 0.2 mg/day (BID) for 4 weeks, 4.5 h after high-fat meal): 1.79 µmol/L
- Time of administration at which the free carnitine increasing action reached the maximum value [3]: 12 weeks
- Ratio of change in concentration of free carnitine in blood in a fasting state with respect to value before administration (0 weeks), average ([3]; 4 weeks): 20.0
- Ratio of change in concentration of free carnitine in blood in a fasting state with respect to value before administration (0 weeks), average ([3]; 12 weeks): 24.7
- Ratio of change in concentration of free carnitine in blood in a fasting state with respect to value before administration (0 weeks), average ([3]; 24 weeks): 24.5
- Effect on concentration of free carnitine in blood in a fasting state compared to placebo (in words) ([3]; 48 weeks): increased the concentration of free carnitine in blood in a fasting state as compared to placebo administration
- Ratio of change in concentration of free carnitine in blood in a fasting state with respect to value before administration (0 weeks), average ([3]; 48 weeks): 20.9
